Measurements published in patent publication US8076356B2, “Triazolopyridinylsulfanyl derivatives as P38 map kinase inhibitors” (Pfizer Inc., priority 2004, dated 2011).

system: TNFα release from human peripheral blood mononuclear cells; experiment: TNFα screen; type: cell-based; details: LPS-stimulated human peripheral blood mononuclear cells, 18 hours incubation, TNFα in supernatant by ELISA; read-out: TNF IC50
Method: Venous blood is collected from healthy volunteers and the mononuclear cells purified by centrifugation through Histopaque (Ficoll) cushions. TNFα production from these cells is stimulated by addition of lipopolysaccharide. After 18 hours incubation in the presence of LPS, the cell supernatant is removed and the concentration of TNFα in the supernatant determined by ELISA.

IC50 [nM] | Structure (SMILES)
0.7 | CC(C)(C)c1cc(NC(=O)NCc2ccccc2Sc2ccc3nnc(-c4ccccc4O)n3c2)n(-c2cccc(C#N)c2)n1 [Example 51]
0.7 | CC(C)(C)c1cc(NC(=O)NCc2ccccc2Sc2ccc3nnc(-c4ccccc4Cl)n3c2)n(-c2cccc(O)c2)n1 [Example 54]
0.9 | CC(C)(C)c1cc(NC(=O)NCc2ccccc2Sc2ccc3nnc(-c4ccccc4O)n3c2)n(-c2cccc(O)c2)n1 [Example 55]
1.2 | Cc1cc(O)cc(-n2nc(C(C)(C)C)cc2NC(=O)NCc2ccccc2Sc2ccc3nnc(C(C)C)n3c2)c1 [Example 57]
1.6 | Cc1cccc(-n2nc(C(C)(C)C)cc2NC(=O)NCc2ccccc2Sc2ccc3nnc(-c4cc(Cl)ccc4O)n3c2)c1 [Example 58]
1.3 | CSCC(C)(C)c1cc(NC(=O)NCc2ccccc2Sc2ccc3nnc(-c4ccccc4O)n3c2)n(-c2cccc(OCCO)c2)n1 [Example 59]
1.4 | CSCC(C)(C)c1cc(NC(=O)NCc2ccccc2Sc2ccc3nnc(-c4ccccc4O)n3c2)n(-c2ccccc2)n1 [Example 60]
1.4 | CSCC(C)(C)c1cc(NC(=O)NCc2ccccc2Sc2ccc3nnc(-c4ccccc4O)n3c2)n(-c2cccc(F)c2)n1 [Example 63]
0.9 | CSCC(C)(C)c1cc(NC(=O)NCc2ccccc2Sc2ccc3nnc(-c4ccccc4O)n3c2)n(-c2ccc(F)c(F)c2)n1 [Example 64]
0.9 | CC(C)c1nnc2ccc(Sc3ccccc3CNC(=O)Nc3cc(C(C)(C)C)nn3-c3ccc(O)c(Cl)c3)cn12 [Example 73]
4 | CCc1cc(-n2nc(C(C)(C)C)cc2NC(=O)NCc2ccccc2Sc2ccc3nnc(C(C)C)n3c2)ccc1O [Example 74]
0.8 | CC(C)c1nnc2ccc(Sc3ccccc3CNC(=O)Nc3cc(C(C)(C)C)nn3-c3ccc(Cl)c(O)c3)cn12 [Example 76]
2.7 | CC(C)(C)c1cc(NC(=O)NCc2ccccc2Sc2ccc3nnc(-c4ccc(O)cc4Cl)n3c2)n(-c2ccc(F)c(F)c2)n1 [Example 77]
0.8 | CC(C)(C)c1cc(NC(=O)NCc2ccccc2Sc2ccc3nnc(-c4cc(O)ccc4Cl)n3c2)n(-c2ccc(F)c(F)c2)n1 [Example 78]

same assay, conditions: PBMC; LPS-stimulated human peripheral blood mononuclear cells, 18 hours incubation, TNFα in supernatant by ELISA; read-out: TNF IC50

Structure (SMILES) | IC50 [nM]
CSC(C)(C)c1cc(NC(=O)NCc2ccccc2Sc2ccc3nnc(C(C)C)n3c2)n(-c2cccc(O)c2)n1 [Example 26, N-{1-(3-Hydroxyphenyl)-3-[1-methyl-1-(methylthio)ethyl]-1H-pyrazol-5-yl}-N′-{2-[(3-isopropyl[1,2,4]triazolo[4,3-a]pyridin-6-yl)thio]benzyl}urea] | 1.6
COc1ccc(-n2nc(C(C)(C)C)cc2NC(=O)NCc2ccccc2Sc2ccc3nnc(C(C)C)n3c2)cc1Cl [Example 33, N-[3-tert-Butyl-1-(3-chloro-4-methoxyphenyl)-1H-pyrazol-5-yl]-N′-{2-[(3-isopropyl[1,2,4]triazolo[4,3-a]pyridin-6-yl)thio]-benzyl}urea] | 2
CC(C)c1nnc2ccc(Sc3ccccc3CNC(=O)Nc3cc(C(C)(C)C)nn3-c3cccnc3)cn12 [Example 34, N-(3-tert-Butyl-1-pyridin-3-yl-1H-pyrazol-5-yl)-N′-{2-[(3-isopropyl[1,2,4]triazolo[4,3-a]pyridin-6-yl)thio]benzyl}-urea] | 1.3
Cc1ccc(-n2nc(C(C)(C)C)cc2NC(=O)NCc2ccccc2Sc2ccc3nnc(-c4cccc(O)c4Cl)n3c2)cc1 [Example 36, N-[3-tert-Butyl-1-(4-methylphenyl)-1H-pyrazol-5-yl]-N′-(2-{[3-(2-chloro-3-hydroxyphenyl)[1,2,4]triazolo[4,3-a]pyridin-6-yl]thio}benzyl)urea] | 4.8
CSC(C)(C)c1cc(NC(=O)NCc2ccccc2Sc2ccc3nnc(C(C)C)n3c2)n(-c2cccc(OCCO)c2)n1 [Example 37] | 2.8
CC(C)c1ccccc1-c1nnc2ccc(Sc3ccccc3CNC(=O)Nc3cc(C(C)(C)C)nn3-c3cccc(OCCO)c3)cn12 [Example 44, N-{3-tert-Butyl-1-[3-(2-hydroxyethoxy)phenyl]-1H-pyrazol-5-yl}-N′-(2-{[3-(2-isopropylphenyl)[1,2,4]triazolo[4,3-a]pyridin-6-yl]thio}benzyl)urea] | 1.1
COc1ccccc1-c1nnc2ccc(Sc3ccccc3CNC(=O)Nc3cc(C(C)(C)C)nn3-c3cccc(OCCO)c3)cn12 [Example 45, N-{3-tert-Butyl-1-[3-(2-hydroxyethoxy)phenyl]-1H-pyrazol-5-yl}-N′-(2-{[3-(2-methoxyphenyl)[1,2,4]triazolo[4,3-a]pyridin-6-yl]thio}benzyl)urea] | 1.4
CC(C)(C)c1cc(NC(=O)NCc2ccccc2Sc2ccc3nnc(-c4ccccc4O)n3c2)n(-c2ccc(F)cc2)n1 [Example 46, N-[3-tert-Butyl-1-(4-fluorophenyl)-1H-pyrazol-5-yl]-N′-(2-{[3-(2-hydroxyphenyl)[1,2,4]triazolo[4,3-a]pyridin-6-yl]thio}benzyl)urea] | 0.8
CC(C)(C)c1cc(NC(=O)NCc2ccccc2Sc2ccc3nnc(-c4ccccc4O)n3c2)n(-c2cccnc2)n1 [Example 70, N-(3-tert-Butyl-1-pyridin-3-yl-1H-pyrazol-5-yl)-N′-(2-{[3-(2-hydroxyphenyl)[1,2,4]triazolo[4,3-a]pyridin-6-yl]thio}benzyl)urea] | 0.9
CC(C)(C)c1cc(NC(=O)NCc2ccccc2Sc2ccc3nnc(-c4ccccc4O)n3c2)n(-c2ccccn2)n1 [Example 71, N-(3-tert-Butyl-1-pyridin-2-yl-1H-pyrazol-5-yl)-N′-(2-{[3-(2-hydroxyphenyl)[1,2,4]triazolo[4,3-a]pyridin-6-yl]thio}benzyl)urea] | 3

The remaining lines, values ahead:

IC50 [nM] | Structure (SMILES)
1.1 | CC(C)(C)c1cc(NC(=O)NCc2ccccc2Sc2ccc3nnc(-c4ccccc4O)n3c2)n(-c2cccc(OCCO)c2)n1 [Example 80, N-{3-tert-Butyl-1-[3-(2-hydroxyethoxy)phenyl]-1H-pyrazol-5-yl}-N′-(2-{[3-(2-hydroxyphenyl)[1,2,4]triazolo[4,3-a]pyridin-6-yl]thio}benzyl)urea]
0.8 | CSC(C)(C)c1cc(NC(=O)NCc2ccccc2Sc2ccc3nnc(-c4cc(Cl)ccc4O)n3c2)n(-c2cccc(C)c2)n1 [Example 86, N-(2-{[3-(5-Chloro-2-hydroxyphenyl)[1,2,4]triazolo[4,3-a]pyridin-6-yl]thio}benzyl)-N′-[3-[1-methyl-1-(methylthio)ethyl]-1-(3-methylphenyl)-1H-pyrazol-5-yl]urea]
0.6 | CSC(C)(C)c1cc(NC(=O)NCc2ccccc2Sc2ccc3nnc(-c4cc(Cl)ccc4O)n3c2)n(-c2ccc(C)cc2)n1 [Example 87, N-(2-{[3-(5-Chloro-2-hydroxyphenyl)[1,2,4]triazolo[4,3-a]pyridin-6-yl]thio}benzyl)-N′-[3-[1-methyl-1-(methylthio)ethyl]-1-(4-methylphenyl)-1H-pyrazol-5-yl]urea]
1.1 | CSc1ccccc1-c1nnc2ccc(Sc3ccccc3CNC(=O)Nc3cc(C(C)(C)C)nn3-c3cccc(O)c3)cn12 [Example 93, N-[3-tert-Butyl-1-(3-hydroxyphenyl)-1H-pyrazol-5-yl]-N′-[2-({3-[2-(methylthio)phenyl][1,2,4]triazolo[4,3-a]pyridin-6-yl}thio)benzyl]urea]
0.9 | CSC(C)(C)c1cc(NC(=O)NCc2ccccc2Sc2ccc3nnc(-c4ccccc4O)n3c2)n(-c2ccc(F)cc2)n1 [Example 94, N-{1-(4-Fluorophenyl)-3-[1-methyl-1-(methylthio)ethyl]-1H-pyrazol-5-yl}-N′-(2-{[3-(2-hydroxyphenyl)[1,2,4]triazolo[4,3-a]pyridin-6-yl]thio}benzyl)urea]
0.6 | CSC(C)(C)c1cc(NC(=O)NCc2ccccc2Sc2ccc3nnc(-c4ccccc4O)n3c2)n(-c2ccc(F)c(F)c2)n1 [Example 95, N-{1-(3,4-Difluorophenyl)-3-[1-methyl-1-(methylthio)ethyl]-1H-pyrazol-5-yl}-N′-(2-{[3-(2-hydroxyphenyl)[1,2,4]triazolo[4,3-a]pyridin-6-yl]thio}benzyl)urea]
0.6 | COc1ccc(-n2nc(C(C)(C)C)cc2NC(=O)NCc2ccccc2Sc2ccc3nnc(-c4ccccc4O)n3c2)cc1 [Example 97, N-[3-tert-Butyl-1-(4-methoxyphenyl)-1H-pyrazol-5-yl]-N′-(2-{[3-(2-hydroxyphenyl)[1,2,4]triazolo[4,3-a]pyridin-6-yl]thio}benzyl)urea]
0.4 | COc1cccc(-n2nc(C(C)(C)C)cc2NC(=O)NCc2ccccc2Sc2ccc3nnc(-c4ccccc4O)n3c2)c1 [Example 98, N-[3-tert-Butyl-1-(3-methoxyphenyl)-1H-pyrazol-5-yl]-N′-(2-{[3-(2-hydroxyphenyl)[1,2,4]triazolo[4,3-a]pyridin-6-yl]thio}benzyl)urea]
1.1 | CCC(C)(C)c1cc(NC(=O)NCc2ccccc2Sc2ccc3nnc(-c4ccccc4O)n3c2)n(-c2cccc(OCCO)c2)n1 [Example 100]
1.7 | CCc1ccccc1-c1nnc2ccc(Sc3ccccc3CNC(=O)Nc3cc(C(C)(C)SC)nn3-c3cccc(OCCO)c3)cn12 [Example 102, N-(2-{[3-(2-Ethylphenyl)[1,2,4]triazolo[4,3-a]pyridin-6-yl]thio}benzyl)-N′-{1-[3-(2-hydroxyethoxy)phenyl]-3-[1-methyl-1-(methylthio)ethyl]-1H-pyrazol-5-yl}urea]
1 | CCc1ccccc1-c1nnc2ccc(Sc3ccccc3CNC(=O)Nc3cc(C(C)(C)C)nn3-c3cccc(OCCO)c3)cn12 [Example 104, N-{3-tert-Butyl-1-[3-(2-hydroxyethoxy)phenyl]-1H-pyrazol-5-yl}-N′-(2-{[3-(2-ethylphenyl)[1,2,4]triazolo[4,3-a]pyridin-6-yl]thio}benzyl)urea]
0.6 | Cc1ccccc1-c1nnc2ccc(Sc3ccccc3CNC(=O)Nc3cc(C(C)(C)C)nn3-c3cccc(OCCO)c3)cn12 [Example 105, N-{3-tert-Butyl-1-[3-(2-hydroxyethoxy)phenyl]-1H-pyrazol-5-yl}-N′-(2-{[3-(2-methylphenyl)[1,2,4]triazolo[4,3-a]pyridin-6-yl]thio}benzyl)urea]
